Source: the NIST ThermoML archive (doi:10.1021/acs.jced.5b00288)
Where “and” joins values, the source holds several entries; their conditions need not be identical. Identical values can stand only once.

Test: excess molar enthalpy (molar enthalpy of mixing); xn = mol fraction of the nth substance listed
Details: 1060 K, 101 kPa, Liquid, Calvet calorimetry

[I][La]([I])[I] [lanthanum triiodide] + [I-].[K+]
Details	excess molar enthalpy
x1 = 0.048	-1.94 kJ/mol
x1 = 0.1	-4.07 kJ/mol
x1 = 0.152	-6.4 kJ/mol
x1 = 0.199	-6.86 kJ/mol and -8.07 kJ/mol
x1 = 0.246	-8.92 kJ/mol
x1 = 0.25	-7.36 kJ/mol
x1 = 0.304	-7.48 kJ/mol
x1 = 0.348	-7.92 kJ/mol
x1 = 0.354	-9.62 kJ/mol
x1 = 0.398	-8.06 kJ/mol

[I][La]([I])[I] [lanthanum triiodide] + [I-].[Na+]
Details	excess molar enthalpy [kJ/mol]
x1 = 0.0482	-0.792
x1 = 0.0991	-1.74
x1 = 0.1503	-1.93
x1 = 0.2	-2.84
x1 = 0.2477	-2.3
x1 = 0.296	-3.44
x1 = 0.3412	-2.74
x1 = 0.3968	-2.89
x1 = 0.3984	-3.19
x1 = 0.4454	-2.86
x1 = 0.4931	-2.08
x1 = 0.4966	-2.41
x1 = 0.5392	-2.53
